{"source": "patent US20240365781A1", "about": "“SYNERGISTICALLY EFFECTIVE HERBICIDE COMPOSITION COMPRISING PELARGONIC ACID AND FLAZASULFURON” (Belchim Crop Protection NV, priority 2017, published 2024)", "test_in_all_cases": "post-emergence field trial under rows of vines, 150-200 L water/ha (Examples 6-9)", "format_in_all_cases": "in vivo", "conditions_in_all_cases": "flazasulfuron 40 g/ha", "key": {"[1]": {"system": "Amaranthus retroflexus", "source_text": "(§1) The expected activity of a given combination of two or three herbicides can be calculated as follows according to a calculation method by Colby (cf. COLBY, S. R.: “Calculating synergistic and antagonistic responses of herbicide combinations”, • Weeds 15, pages 20-22, 1967): • If X=% damage by herbicide (A) at an application rate of m g/ha, • Y=% damage by herbicide (B) at an application rate of n g/ha, • E=the expected damage by herbicides (A) and (B) at application rates of m and n […] and, • then for a combination:\n(§2) Individual compositions comprising pelargonic acid or flazasulfuron are compared with a herbicide composition according to the invention comprising pelargonic acid and flazasulfuron.\n(§3) Herbicidal activity was determined by performing a post-emergence test. […] The corresponding mixture was in the form of a spray solution. Besides, spray solutions of individual compositions comprising pelargonic acid or flazasulfuron were used.\n(§4) The spray solution was applied on plants of unwanted vegetation present on fields where perennial crops were grown.\n(§5) After 5 to 88 days after application of the spray solution, the degree of damage to the unwanted vegetation is rated in % of plants of unwanted vegetation that were killed. Tests were performed on test fields (field trials)."}, "[2]": {"system": "Convolvulus arvensis", "source_text": "as §1, §2, §3, §4, §5"}, "[3]": {"system": "Digitaria sanguinalis and Setaria pumila", "source_text": "as §1, §2, §3, §4, §5"}, "[4]": {"system": "Digitaria sanguinalis", "source_text": "as §1, §2, §3, §4, §5"}, "[5]": {"system": "Epilobium tetragonum", "source_text": "as §1, §2, §3, §4, §5"}, "[6]": {"conditions": "7 d, pelargonic acid 10880 g/ha"}, "[7]": {"conditions": "14 d, pelargonic acid 5440 g/ha"}, "[8]": {"conditions": "14 d, pelargonic acid 10880 g/ha"}, "[9]": {"conditions": "14 d, pelargonic acid 6800 g/ha"}, "[10]": {"conditions": "14 d, pelargonic acid 8160 g/ha"}, "[11]": {"conditions": "28 d, pelargonic acid 6800 g/ha"}, "[12]": {"conditions": "28 d, pelargonic acid 8160 g/ha"}, "[13]": {"conditions": "28 d, pelargonic acid 10880 g/ha"}, "[14]": {"conditions": "65 d, pelargonic acid 5440 g/ha"}, "[15]": {"conditions": "65 d, pelargonic acid 8160 g/ha"}, "[16]": {"conditions": "65 d, pelargonic acid 10880 g/ha"}}}
{"smiles": "CCCCCCCCC(=O)O", "note": "[Pelargonic acid, nonanoic acid]", "values": [{"measurement": "herbicidal effect", "setting": "[1]; 7 d, pelargonic acid 5440 g/ha", "result": 53, "unit": "%"}, {"measurement": "herbicidal effect", "setting": "[1]; [6]", "result": 86, "unit": "%"}, {"measurement": "herbicidal effect", "setting": "[1]; [7]", "result": 53, "unit": "%"}, {"measurement": "herbicidal effect", "setting": "[1]; [8]", "result": 86, "unit": "%"}, {"measurement": "herbicidal effect", "setting": "[1]; 31 d, pelargonic acid 5440 g/ha", "result": 48, "unit": "%"}, {"measurement": "herbicidal effect", "setting": "[1]; 31 d, pelargonic acid 6800 g/ha", "result": 50, "unit": "%"}, {"measurement": "herbicidal effect", "setting": "[1]; 31 d, pelargonic acid 8160 g/ha", "result": 70, "unit": "%"}, {"measurement": "herbicidal effect", "setting": "[1]; 31 d, pelargonic acid 10880 g/ha", "result": 75, "unit": "%"}, {"measurement": "herbicidal effect", "setting": "[1]; 58 d, pelargonic acid 5440 g/ha", "result": 18, "unit": "%"}, {"measurement": "herbicidal effect", "setting": "[1]; 58 d, pelargonic acid 6800 g/ha", "result": 30, "unit": "%"}, {"measurement": "herbicidal effect", "setting": "[1]; 58 d, pelargonic acid 8160 g/ha", "result": 48, "unit": "%"}, {"measurement": "herbicidal effect", "setting": "[1]; 58 d, pelargonic acid 10880 g/ha", "result": 63, "unit": "%"}, {"measurement": "herbicidal effect", "setting": "[2]; 7 d, pelargonic acid 5440 g/ha", "result": 13, "unit": "%"}, {"measurement": "herbicidal effect", "setting": "[2]; 7 d, pelargonic acid 6800 g/ha", "result": 0, "unit": "%"}, {"measurement": "herbicidal effect", "setting": "[2]; 7 d, pelargonic acid 8160 g/ha", "result": 19, "unit": "%"}, {"measurement": "herbicidal effect", "setting": "[2]; [7]", "result": 13, "unit": "%"}, {"measurement": "herbicidal effect", "setting": "[2]; [9]", "result": 0, "unit": "%"}, {"measurement": "herbicidal effect", "setting": "[2]; [10]", "result": 23, "unit": "%"}, {"measurement": "herbicidal effect", "setting": "[2]; [8]", "result": 43, "unit": "%"}, {"measurement": "herbicidal effect", "setting": "[2]; [11]", "result": 0, "unit": "%"}, {"measurement": "herbicidal effect", "setting": "[2]; [12]", "result": 0, "unit": "%"}, {"measurement": "herbicidal effect", "setting": "[2]; [13]", "result": 38, "unit": "%"}, {"measurement": "herbicidal effect", "setting": "[2]; [14]", "result": 0, "unit": "%"}, {"measurement": "herbicidal effect", "setting": "[2]; 65 d, pelargonic acid 6800 g/ha", "result": 0, "unit": "%"}, {"measurement": "herbicidal effect", "setting": "[2]; [15]", "result": 0, "unit": "%"}, {"measurement": "herbicidal effect", "setting": "[2]; [16]", "result": 0, "unit": "%"}, {"measurement": "herbicidal effect", "setting": "[3]; 7 d, pelargonic acid 5440 g/ha", "result": 97, "unit": "%"}, {"measurement": "herbicidal effect", "setting": "[3]; 7 d, pelargonic acid 6800 g/ha", "result": 19, "unit": "%"}, {"measurement": "herbicidal effect", "setting": "[3]; 7 d, pelargonic acid 8160 g/ha", "result": 68, "unit": "%"}, {"measurement": "herbicidal effect", "setting": "[3]; [6]", "result": 70, "unit": "%"}, {"measurement": "herbicidal effect", "setting": "[3]; [7]", "result": 25, "unit": "%"}, {"measurement": "herbicidal effect", "setting": "[3]; [10]", "result": 19, "unit": "%"}, {"measurement": "herbicidal effect", "setting": "[3]; [8]", "result": 38, "unit": "%"}, {"measurement": "herbicidal effect", "setting": "[3]; 28 d, pelargonic acid 5440 g/ha", "result": 0, "unit": "%"}, {"measurement": "herbicidal effect", "setting": "[3]; [11]", "result": 0, "unit": "%"}, {"measurement": "herbicidal effect", "setting": "[3]; [12]", "result": 0, "unit": "%"}, {"measurement": "herbicidal effect", "setting": "[3]; [13]", "result": 31, "unit": "%"}, {"measurement": "herbicidal effect", "setting": "[3]; [14]", "result": 0, "unit": "%"}, {"measurement": "herbicidal effect", "setting": "[3]; [15]", "result": 0, "unit": "%"}, {"measurement": "herbicidal effect", "setting": "[3]; [16]", "result": 0, "unit": "%"}, {"measurement": "herbicidal effect", "setting": "[4]; 7 d, pelargonic acid 5440 g/ha", "result": 35, "unit": "%"}, {"measurement": "herbicidal effect", "setting": "[4]; 7 d, pelargonic acid 6800 g/ha", "result": 63, "unit": "%"}, {"measurement": "herbicidal effect", "setting": "[4]; 7 d, pelargonic acid 8160 g/ha", "result": 48, "unit": "%"}, {"measurement": "herbicidal effect", "setting": "[4]; [6]", "result": 54, "unit": "%"}, {"measurement": "herbicidal effect", "setting": "[4]; [7]", "result": 10, "unit": "%"}, {"measurement": "herbicidal effect", "setting": "[4]; [9]", "result": 58, "unit": "%"}, {"measurement": "herbicidal effect", "setting": "[4]; [10]", "result": 43, "unit": "%"}, {"measurement": "herbicidal effect", "setting": "[4]; [8]", "result": 49, "unit": "%"}, {"measurement": "herbicidal effect", "setting": "[4]; 27 d, pelargonic acid 5440 g/ha", "result": 10, "unit": "%"}, {"measurement": "herbicidal effect", "setting": "[4]; 27 d, pelargonic acid 6800 g/ha", "result": 20, "unit": "%"}, {"measurement": "herbicidal effect", "setting": "[4]; 27 d, pelargonic acid 8160 g/ha", "result": 26, "unit": "%"}, {"measurement": "herbicidal effect", "setting": "[4]; 27 d, pelargonic acid 10880 g/ha", "result": 5, "unit": "%"}, {"measurement": "herbicidal effect", "setting": "[4]; 56 d, pelargonic acid 5440 g/ha", "result": 0, "unit": "%"}, {"measurement": "herbicidal effect", "setting": "[4]; 56 d, pelargonic acid 6800 g/ha", "result": 8, "unit": "%"}, {"measurement": "herbicidal effect", "setting": "[4]; 56 d, pelargonic acid 8160 g/ha", "result": 0, "unit": "%"}, {"measurement": "herbicidal effect", "setting": "[4]; 56 d, pelargonic acid 10880 g/ha", "result": 0, "unit": "%"}, {"measurement": "herbicidal effect", "setting": "[5]; 7 d, pelargonic acid 5440 g/ha", "result": 49, "unit": "%"}, {"measurement": "herbicidal effect", "setting": "[5]; 7 d, pelargonic acid 8160 g/ha", "result": 56, "unit": "%"}, {"measurement": "herbicidal effect", "setting": "[5]; [6]", "result": 73, "unit": "%"}, {"measurement": "herbicidal effect", "setting": "[5]; [9]", "result": 0, "unit": "%"}, {"measurement": "herbicidal effect", "setting": "[5]; [10]", "result": 8, "unit": "%"}]}
